The supplement of paper PMC10307832

Legend:
Assay in all cases: relative viability (nuclei count vs DMSO), 5 days (fraction); higher = more cells survive
NCI-H1793 = system: NCI-H1793
Procedure, shortened: (§1)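 Five library-drug doses in √10 steps were combined with a fixed anchor-drug dose, or a single drug was given alone, by pin tool to lung cancer cell lines in 1536-well plates the day after seeding. Nuclei were stained and counted after 5 days. Relative viability is the nuclei count in treated wells over that in vehicle wells, taken as the median of duplicate plates.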

NCI-H1944 = system: NCI-H1944
Procedure, shortened: as §1

NCI-H2087 = system: NCI-H2087
Procedure, shortened: as §1

NCI-H2228 = system: NCI-H2228
Procedure, shortened: as §1

NCI-H2405 = system: NCI-H2405
Procedure, shortened: as §1

NCI-H3122 = system: NCI-H3122
Procedure, shortened: as §1

NCI-H322M = system: NCI-H322M
Procedure, shortened: as §1

NCI-H647 = system: NCI-H647
Procedure, shortened: as §1

NCI-H727 = system: NCI-H727
Procedure, shortened: as §1

RERF-LC-KJ = system: RERF-LC-KJ
Procedure, shortened: as §1

SK-LU-1 = system: SK-LU-1
Procedure, shortened: as §1

O=c1cc(-c2cccc3c2Sc2ccccc2S3)oc(N2CCOCC2)c1 + COc1cccc2cc(-c3nc([C@H]4CC[C@H](C(=O)O)CC4)n4ncnc(N)c34)[nH]c12 [OSI-027] (partner 0.5 µM)
relative viability (NCI-H1793; first compound 0.08 µM): 0.227
relative viability (NCI-H1793; first compound 0.253 µM): 0.29
relative viability (NCI-H1793; first compound 0.8 µM): 0.248
relative viability (NCI-H1793; first compound 2.53 µM): 0.227
relative viability (NCI-H1793; first compound 8 µM): 0.267
relative viability (NCI-H1944; first compound 0.08 µM): 0.376
relative viability (NCI-H1944; first compound 0.253 µM): 0.403
relative viability (NCI-H1944; first compound 0.8 µM): 0.367
relative viability (NCI-H1944; first compound 2.53 µM): 0.34
relative viability (NCI-H1944; first compound 8 µM): 0.38
relative viability (NCI-H2087; first compound 0.08 µM): 0.352
relative viability (NCI-H2087; first compound 0.253 µM): 0.649
relative viability (NCI-H2087; first compound 0.8 µM): 0.589
relative viability (NCI-H2087; first compound 2.53 µM): 0.416
relative viability (NCI-H2087; first compound 8 µM): 0.452
relative viability (NCI-H2228; first compound 0.08 µM): 0.554
relative viability (NCI-H2228; first compound 0.253 µM): 0.719
relative viability (NCI-H2228; first compound 0.8 µM): 0.538
relative viability (NCI-H2228; first compound 2.53 µM): 0.389
relative viability (NCI-H2228; first compound 8 µM): 0.544
relative viability (NCI-H2405; first compound 0.08 µM): 0.604
relative viability (NCI-H2405; first compound 0.253 µM): 0.647
relative viability (NCI-H2405; first compound 0.8 µM): 0.61
relative viability (NCI-H2405; first compound 2.53 µM): 0.61
relative viability (NCI-H2405; first compound 8 µM): 0.618
relative viability (NCI-H3122; first compound 0.08 µM): 1.25
relative viability (NCI-H3122; first compound 0.253 µM): 1.08
relative viability (NCI-H3122; first compound 0.8 µM): 0.957
relative viability (NCI-H3122; first compound 2.53 µM): 1.03
relative viability (NCI-H3122; first compound 8 µM): 1.08
relative viability (NCI-H322M; first compound 0.08 µM): 0.524
relative viability (NCI-H322M; first compound 0.253 µM): 0.588
relative viability (NCI-H322M; first compound 0.8 µM): 0.618
relative viability (NCI-H322M; first compound 2.53 µM): 0.44
relative viability (NCI-H322M; first compound 8 µM): 0.543
relative viability (NCI-H647; first compound 0.08 µM): 0.636
relative viability (NCI-H647; first compound 0.253 µM): 0.813
relative viability (NCI-H647; first compound 0.8 µM): 0.588
relative viability (NCI-H647; first compound 2.53 µM): 0.513
relative viability (NCI-H647; first compound 8 µM): 0.623
relative viability (NCI-H727; first compound 0.08 µM): 0.631
relative viability (NCI-H727; first compound 0.253 µM): 0.673
relative viability (NCI-H727; first compound 0.8 µM): 0.586
relative viability (NCI-H727; first compound 2.53 µM): 0.563
relative viability (NCI-H727; first compound 8 µM): 0.64
relative viability (RERF-LC-KJ; first compound 0.08 µM): 0.46
relative viability (RERF-LC-KJ; first compound 0.253 µM): 0.54
relative viability (RERF-LC-KJ; first compound 0.8 µM): 0.526
relative viability (RERF-LC-KJ; first compound 2.53 µM): 0.499
relative viability (RERF-LC-KJ; first compound 8 µM): 0.494
relative viability (SK-LU-1; first compound 0.08 µM): 0.322
relative viability (SK-LU-1; first compound 0.253 µM): 0.375
relative viability (SK-LU-1; first compound 0.8 µM): 0.335
relative viability (SK-LU-1; first compound 2.53 µM): 0.364
relative viability (SK-LU-1; first compound 8 µM): 0.301
